Results taken from ChEMBL document CHEMBL1135012, “Reductively activated disulfide prodrugs of paclitaxel” (Bioorg Med Chem Lett, 2002).

What was measured:
[1] = The half-life period for the release of paclitaxel after cyclization was determined for the compound; assay type: ADME
[2] = Compound was evaluated for its cytotoxicity against L2987 lung carcinoma cells; assay type: functional, cell-based; conditions: Homo sapiens
[3] = Percentage tumor cure rate in when treated with 125 mg/Kg dose in athymic nude mice; assay type: functional, Mus musculus
[4] = Compound along with dithiothreitol (DTT) was evaluated for its cytotoxicity against L2987 lung carcinoma cells; assay type: functional, cell-based; conditions: Homo sapiens
[5] = Dose required for the compound to elicit the Antitumor activity: No effective activity; assay type: functional
[6] = Maximum Tolerated Dose required for the compound to regress the tumors for the Antitumor activity: No effective activity; assay type: functional

Structure (SMILES)	T1/2 [1] [min]	IC50 [2] [nM]	Tumor cure [3] [%]	IC50 [4] [nM]	Dose [5] [mg/kg]	Dose [6] [mg/kg]
CC(=O)O[C@H]1C(=O)[C@@]2(C)[C@H]([C@H](OC(=O)c3ccccc3)[C@]3(O)C[C@H](OC(=O)[C@H](OC(=O)C(C)(C)CCSSC[C@H](C)C(=O)N4CCC[C@@H]4C(=O)O)[C@@H](NC(=O)c4ccccc4)c4ccccc4)C(C)=C1C3(C)C)[C@]1(OC(C)=O)CO[C@@H]1C[C@@H]2O	25	130000	60	2300	–	–
CC(=O)O[C@H]1C(=O)[C@@]2(C)[C@H]([C@H](OC(=O)c3ccccc3)[C@]3(O)C[C@H](OC(=O)[C@H](OC(=O)C(C)(C)CCSSC4OC(CO)C(O)C(O)C4O)C(NC(=O)c4ccccc4)c4ccccc4)C(C)=C1C3(C)C)[C@]1(OC(C)=O)CO[C@@H]1C[C@@H]2O (stereo partly drawn)	12	5700	–	200	85	–
CC(=O)O[C@H]1C(=O)[C@@]2(C)[C@H]([C@H](OC(=O)c3ccccc3)[C@]3(O)C[C@H](OC(=O)[C@H](OC(=O)C(C)(C)CCSSc4ccccn4)[C@@H](NC(=O)c4ccccc4)c4ccccc4)C(C)=C1C3(C)C)[C@]1(OC(C)=O)CO[C@@H]1C[C@@H]2O	4	6200	–	200	125	–
CC(=O)O[C@H]1C(=O)[C@@]2(C)[C@H]([C@H](OC(=O)c3ccccc3)[C@]3(O)C[C@H](OC(=O)[C@H](OC(=O)C(C)(C)CCSSCC(NC(=O)CCC(N)C(=O)O)C(=O)NCC(=O)O)[C@@H](NC(=O)c4ccccc4)c4ccccc4)C(C)=C1C3(C)C)[C@]1(OC(C)=O)CO[C@@H]1C[C@@H]2O (stereo partly drawn)	> 60	10100	–	400	150	–
CC(=O)O[C@H]1C(=O)[C@@]2(C)[C@H]([C@H](OC(=O)c3ccccc3)[C@]3(O)C[C@H](OC(=O)[C@H](O)[C@@H](NC(=O)c4ccccc4)c4ccccc4)C(C)=C1C3(C)C)[C@]1(OC(C)=O)CO[C@@H]1C[C@@H]2O [PACLITAXEL]	–	200	–	–	–	30
